Data reported in ChEMBL document CHEMBL1150257, “Synthesis and cytotoxicity of a salicylihalamide A analogue” (2008).

Experiments:
Assay type in all cases: functional
SK-MEL-5 = experiment: Cytotoxicity against human SK-MEL-5 cells
MCF7 = experiment: Cytotoxicity against human MCF7 cells
SR = experiment: Cytotoxicity against human SR cells
MDA-MB-435 = experiment: Cytotoxicity against human MDA-MB-435 cells

| Compound | GI50 (SK-MEL-5) | GI50 (MCF7) | GI50 (SR) | GI50 (MDA-MB-435) |
| --- | --- | --- | --- | --- |
| CC/C=C\C=C/C(=O)N/C=C/CC1Cc2cccc(O)c2C(=O)O1 (racemic) | 27 µM | 49 µM | 2 µM | 11 µM |
| CC/C=C\C=C/C(=O)N/C=C/C[C@H]1C[C@@H](O)[C@@H](C)C/C=C/Cc2cccc(O)c2C(=O)O1 [SALICYLIHALAMIDE A] | 0.007 µM | – | – | – |
